Assay [1] has as its target T1, Human PDE10A2 (Homo sapiens (Human), UniProt Q9Y233). In words: Biochemical human PDE10A activity assay - PDE10A2 Phosphate Sensor Assay. The settings on record: cGMP 3 μM substrate, PDE10A2 0.25 nM. The procedure: Biochemical Human PDE10A Activity Assay—PDE10A2 Phosphate Sensor Assay
Semi Log compound dilutions starting at a final concentration of 50 μM were dispensed into a black 384 well plate alongside, DMSO and an Inhibited control using the Echo Acoustic dispenser. […] Data was analysed using a 4-parameter fit.

Assay [2] has as its target T1, Human PDE10A2. The experiment in a line: Cell based human PDE10A activity assay - cAMP HTRF assay in HEK 293 rhPDE10A2 cell line. As to the method:
Semi log compound dilutions starting at a final concentration of 10 μM were dispensed into a white 384 well plate, alongside DMSO and an Inhibited control using the Tecan D300e digital dispenser. HEK 293 cells overexpressing recombinant human PDE10A2 were seeded on top of the compounds at 2500 cells/well in a volume 5 μL/well. The plate was incubated at room temperature for 60 minutes. To induce endogenous cAMP, 5 μL/well of Forskolin at a final assay concentration of 10 μM was added to the plate. The plate was incubated at room temperature for a further 45 minutes. cAMP HTRF detection reagents were added, and the plate was incubated for 60 minutes at room temperature. […] Data was analysed using a 4-parameter fit.
(In TR-FRET formats the signal depends on donor and acceptor labels being close together.)

Where [3] appears, read: Forskolin 10 μM, read-out: cAMP HTRF Assay in HEK 293 rhPDE10A2 cell line (pIC50) (converted).

Like-named read-outs stand apart in the source and are kept apart here.

T1 sequence (Q9Y233 267-1055): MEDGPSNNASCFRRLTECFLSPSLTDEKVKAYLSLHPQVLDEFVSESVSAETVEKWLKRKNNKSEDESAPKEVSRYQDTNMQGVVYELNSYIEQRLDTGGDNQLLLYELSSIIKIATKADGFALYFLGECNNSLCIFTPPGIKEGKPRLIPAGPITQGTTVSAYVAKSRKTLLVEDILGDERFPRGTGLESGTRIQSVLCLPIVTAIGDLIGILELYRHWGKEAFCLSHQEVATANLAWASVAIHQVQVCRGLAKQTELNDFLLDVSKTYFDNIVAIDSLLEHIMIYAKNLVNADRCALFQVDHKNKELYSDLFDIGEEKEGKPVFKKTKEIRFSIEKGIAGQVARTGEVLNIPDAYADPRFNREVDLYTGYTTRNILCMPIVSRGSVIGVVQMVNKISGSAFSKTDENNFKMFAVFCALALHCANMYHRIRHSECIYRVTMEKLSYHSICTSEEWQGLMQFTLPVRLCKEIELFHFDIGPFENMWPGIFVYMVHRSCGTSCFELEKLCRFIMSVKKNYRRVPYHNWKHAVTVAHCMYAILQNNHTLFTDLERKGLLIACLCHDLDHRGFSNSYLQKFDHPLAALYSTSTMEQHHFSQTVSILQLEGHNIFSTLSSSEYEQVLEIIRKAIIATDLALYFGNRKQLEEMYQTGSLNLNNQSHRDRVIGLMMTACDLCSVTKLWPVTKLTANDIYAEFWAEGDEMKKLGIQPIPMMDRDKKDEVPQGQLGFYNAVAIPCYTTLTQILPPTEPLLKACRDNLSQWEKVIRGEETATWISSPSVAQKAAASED

Take `Cn1ncc(-c2ccncc2)c1-c1ccc(OCc2cc(C(=O)O)c3ccccc3n2)cc1` [Example 1, 2-[[4-[2-Methyl-4-(4-pyridyl)pyrazol-3-yl]phenoxy]methyl]quinoline-4-carboxylic acid]: the “PDE10A2 Phosphate Sensor Enzyme Assay (pIC50)” value on Human PDE10A2 [1] is 9.43. The IC50 at Human PDE10A2 [2] (setting [3]) was 1.95 nM.

Regarding `Cn1ncc(-c2ccncc2)c1-c1ccc(OCc2nc3ccccc3cc2C(=O)O)cc1` [Example 2, 2-[[4-[2-Methyl-4-(4-pyridyl)pyrazol-3-yl]phenoxy]methyl]quinoline-3-carboxylic acid], the “PDE10A2 Phosphate Sensor Enzyme Assay (pIC50)” value on Human PDE10A2 [1] was determined as 9.69. Also, the IC50 on Human PDE10A2 [2] (setting [3]) is 0.117 nM. In the same order, the values of `CS(=O)(=O)n1cc(-c2ccncc2)c(-c2ccc(OCc3ccc4ccccc4n3)cc2)n1` [Example 6, 2-[[4-[1-Methylsulfonyl-4-(4-pyridyl)pyrazol-3-yl]phenoxy]methyl]quinoline] are 8.36 and 64.6 nM. The matching figures for `Cc1cccc2nc(COc3ccc(-c4nn(C)cc4-c4ccncc4)cc3)c(C(=O)N=S(C)(C)=O)cc12` [Example 7, N-[Dimethyl(oxo)-λ6-sulfanylidene]-5-methyl-2-[[4-[1-methyl-4-(4-pyridyl)pyrazol-3-yl]phenoxy]methyl]quinoline-3-carboxamide]: 9.65 and 1.48 nM.

As to `CS(C)(=O)=NC(=O)c1cc(COc2ccc(-c3nn(CC(F)(F)F)cc3-c3ccncc3)cc2)nc2ccccc12` [Example 8, N-[Dimethyl(oxo)-λ6-sulfanylidene]-2-[[4-[4-(4-pyridyl)-1-(2,2,2-trifluoroethyl)pyrazol-3-yl]phenoxy]methyl]quinoline-4-carboxamide], at Human PDE10A2 [1], the “PDE10A2 Phosphate Sensor Enzyme Assay (pIC50)” value came to 10.2. Also, at Human PDE10A2 [2] (setting [3]), the IC50 is 0.38 nM. In the case of `CS(C)(=O)=NC(=O)c1cc(COc2ccc(-c3n[nH]cc3-c3ccncc3)cc2)nc2ccccc12` [Example 12, N-[Dimethyl(oxo)-λ6-sulfanylidene]-2-[[4-[4-(4-pyridyl)-1H-pyrazol-3-yl]phenoxy]methyl]quinoline-4-carboxamide], the “PDE10A2 Phosphate Sensor Enzyme Assay (pIC50)” value at Human PDE10A2 [1] is reported as 9.84. Moreover, the IC50 on Human PDE10A2 [2] (setting [3]) is 5.01 nM. Consider `Cn1cc(-c2ccncc2)c(-c2ccc(OCc3nc4ccccc4cc3C(=O)N=S3(=O)CCCC3)cc2)n1` [Example 13, 2-[[4-[1-Methyl-4-(4-pyridyl)pyrazol-3-yl]phenoxy]methyl]-N-(1-oxothiolan-1-ylidene)quinoline-3-carboxamide], for which the “PDE10A2 Phosphate Sensor Enzyme Assay (pIC50)” value at Human PDE10A2 [1] is recorded as 9.86. The IC50 on Human PDE10A2 [2] (setting [3]) was 0.977 nM. Consider `Cn1cc(-c2ccncc2)c(-c2ccc(OCc3nc4ccccc4cc3C(=O)N=S(C)(=O)C3CC3)cc2)n1` (stereo not shown) [Example 14, N-(Cyclopropyl-methyl-oxo-λ6-sulfanylidene)-2-[[4-[1-methyl-4-(4-pyridyl)pyrazol-3-yl]phenoxy]methyl]quinoline-3-carboxamide], for which, at Human PDE10A2 [1], the “PDE10A2 Phosphate Sensor Enzyme Assay (pIC50)” value stood at 10.0. Moreover, the IC50 on Human PDE10A2 [2] (setting [3]) is 0.676 nM. `CN(C(=O)c1cc(COc2ccc(-c3nn(C)cc3-c3ccncc3)cc2)nc2ccccc12)S(C)(=O)=O` [Example 16, N-Methyl-2-[[4-[1-methyl-4-(4-pyridyl)pyrazol-3-yl]phenoxy]methyl]-N-methylsulfonyl-quinoline-4-carboxamide]: at Human PDE10A2 [1], the “PDE10A2 Phosphate Sensor Enzyme Assay (pIC50)” value was 9.87. In addition, the IC50 on Human PDE10A2 [2] (setting [3]) is 0.603 nM. In the same order, the values of `Cn1cc(-c2ccncc2)c(-c2ccc(OCc3nc4cc(F)ccc4cc3C(=O)N=S(C)(C)=O)cc2)n1` [Example 21, N-[Dimethyl(oxo)-λ6-sulfanylidene]-7-fluoro-2-[[4-[1-methyl-4-(4-pyridyl)pyrazol-3-yl]phenoxy]methyl]quinoline-3-carboxamide] are 8.32 and 550 nM. The matching figures for `Cn1cc(-c2ccncc2)c(-c2ccc(OCc3nc4ccc(F)cc4cc3C(=O)N=S(C)(C)=O)cc2)n1` [Example 22, N-[Dimethyl(oxo)-λ6-sulfanylidene]-6-fluoro-2-[[4-[1-methyl-4-(4-pyridyl)pyrazol-3-yl]phenoxy]methyl]quinoline-3-carboxamide]: 9.49 and 17.4 nM.

For `Cn1cc(-c2ccncc2)c(-c2ccc(OCc3nc4cccc(F)c4cc3C(=O)N=S(C)(C)=O)cc2)n1` [Example 23, N-[Dimethyl(oxo)-λ6-sulfanylidene]-5-fluoro-2-[[4-[1-methyl-4-(4-pyridyl)pyrazol-3-yl]phenoxy]methyl]quinoline-3-carboxamide], the “PDE10A2 Phosphate Sensor Enzyme Assay (pIC50)” value at Human PDE10A2 [1] is reported as 9.59. Also, the IC50 at Human PDE10A2 [2] (setting [3]) was 3.98 nM. In the case of `Cc1ccc2nc(COc3ccc(-c4nn(C)cc4-c4ccncc4)cc3)c(C(=O)N=S(C)(C)=O)cc2c1` [Example 24, N-[Dimethyl(oxo)-λ6-sulfanylidene]-6-methyl-2-[[4-[1-methyl-4-(4-pyridyl)pyrazol-3-yl]phenoxy]methyl]quinoline-3-carboxamide], the IC50 at Human PDE10A2 [2] (setting [3]) was 331 nM. In the case of `Cn1cc(-c2ccncc2)c(-c2ccc(OCc3cc(C(=O)N=S(C)(C)=O)c4cc(F)ccc4n3)cc2)n1` [Example 25, N-[Dimethyl(oxo)-λ6-sulfanylidene]-6-fluoro-2-[[4-[1-methyl-4-(4-pyridyl)pyrazol-3-yl]phenoxy]methyl]quinoline-4-carboxamide], the “PDE10A2 Phosphate Sensor Enzyme Assay (pIC50)” value at Human PDE10A2 [1] is reported as 9.41. For the same compound, the IC50 on Human PDE10A2 [2] (setting [3]) was 3.63 nM.

Regarding `Cn1cc(-c2ccncc2)c(-c2ccc(OCc3cc(C(=O)N=S(C)(C)=O)c4c(Cl)cccc4n3)cc2)n1` [Example 26, 5-Chloro-N-[Dimethyl(oxo)-λ6-sulfanylidene]-2-[[4-[1-methyl-4-(4-pyridyl)pyrazol-3-yl]phenoxy]methyl]quinoline-4-carboxamide], the “PDE10A2 Phosphate Sensor Enzyme Assay (pIC50)” value at Human PDE10A2 [1] is 9.13. For the same compound, on Human PDE10A2 [2] (setting [3]), the IC50 was 42.7 nM. The matching figures for `CCn1cc(-c2ccncc2)c(-c2ccc(OCc3cc(C(=O)N=S(C)(C)=O)c4ccccc4n3)cc2)n1` [Example 27, N-[Dimethyl(oxo)-λ6-sulfanylidene]-2-[[4-[1-ethyl-4-(4-pyridyl)pyrazol-3-yl]phenoxy]methyl]quinoline-4-carboxamide]: 10.2 and 0.537 nM.

With `CS(C)(=O)=NC(=O)c1cc(COc2ccc(-c3nn(C4CC4)cc3-c3ccncc3)cc2)nc2ccccc12` [Example 28, 2-[[4-[1-Cyclopropyl-4-(4-pyridyl)pyrazol-3-yl]phenoxy]methyl]-N-[dimethyl(oxo)-λ6-sulfanylidene]quinoline-4-carboxamide], the “PDE10A2 Phosphate Sensor Enzyme Assay (pIC50)” value at Human PDE10A2 [1] is reported as 9.42. In addition, at Human PDE10A2 [2] (setting [3]), the IC50 is 2.75 nM. The matching figures for `O=C(O)c1cc2ccccc2nc1COc1ccc(-c2n[nH]cc2-c2ccncc2)cc1` [Example 29, 2-[[4-[4-(4-Pyridyl)-1H-pyrazol-3-yl]phenoxy]methyl]quinoline-3-carboxylic acid]: 10 and 0.347 nM. In the same order, the values of `O=C(O)c1cc(COc2ccc(-c3n[nH]cc3-c3ccncc3)cc2)nc2ccccc12` [Example 30, 2-[[4-[4-(4-Pyridyl)-1H-pyrazol-3-yl]phenoxy]methyl]quinoline-4-carboxylic acid] are 10.2 and 0.138 nM. With `CS(C)(=O)=NC(=O)c1cc2ccccc2nc1COc1ccc(-c2n[nH]cc2-c2ccncc2)cc1` [Example 31, N-[Dimethyl(oxo)-λ6-sulfanylidene]-2-[[4-[4-(4-pyridyl)-1H-pyrazol-3-yl]phenoxy]methyl]quinoline-3-carboxamide], the “PDE10A2 Phosphate Sensor Enzyme Assay (pIC50)” value on Human PDE10A2 [1] is listed as 10. In addition, the IC50 against Human PDE10A2 [2] was 13.8 nM.

As to `CS(C)(=O)=Nc1cc(COc2ccc(-c3n[nH]cc3-c3ccncc3)cc2)nc2ccccc12` [Example 32, Dimethyl-oxo-[[2-[[4-[4-(4-pyridyl)-1H-pyrazol-3-yl]phenoxy]methyl]-4-quinolyl]imino]-λ6-sulfane], the “PDE10A2 Phosphate Sensor Enzyme Assay (pIC50)” value at Human PDE10A2 [1] worked out at 10.3. Moreover, the IC50 on Human PDE10A2 [2] (setting [3]) was 46.8 nM. With `CS(=N)(=O)c1cc(COc2ccc(-c3n[nH]cc3-c3ccncc3)cc2)nc2ccccc12` (stereo not shown) [Example 33, Imino-methyl-oxo-[2-[[4-[4-(4-pyridyl)-1H-pyrazol-3-yl]phenoxy]methyl]-4-quinolyl]-λ6-sulfane], the “PDE10A2 Phosphate Sensor Enzyme Assay (pIC50)” value on Human PDE10A2 [1] was 9.32. Further, the IC50 on Human PDE10A2 [2] (setting [3]) was 8.91 nM. The matching figures for `Cn1cc(-c2ccncc2)c(-c2ccc(OCc3cc(NS(C)(=O)=O)c4ccccc4n3)cc2)n1` [Example 34, N-[2-[[4-[1-Methyl-4-(4-pyridyl)pyrazol-3-yl]phenoxy]methyl]-4-quinolyl]methanesulfonamide]: 9.54 and 1.2 nM. With `CNC(=O)Nc1cc(COc2ccc(-c3nn(C)cc3-c3ccncc3)cc2)nc2ccccc12` [Example 35, 1-Methyl-3-[2-[[4-[1-methyl-4-(4-pyridyl)pyrazol-3-yl]phenoxy]methyl]-4-quinolyl]urea], the “PDE10A2 Phosphate Sensor Enzyme Assay (pIC50)” value at Human PDE10A2 [1] came to 9.67. Further, the IC50 at Human PDE10A2 [2] (setting [3]) was 3.47 nM. The matching figures for `Cn1cc(-c2ccncc2)c(-c2ccc(OCc3cc(NC(=O)N=S(C)(C)=O)c4ccccc4n3)cc2)n1` [Example 36, 1-[Dimethyl(oxo)-λ6-sulfanylidene]-3-[2-[[4-[1-methyl-4-(4-pyridyl)pyrazol-3-yl]phenoxy]methyl]-4-quinolyl]urea]: 9.46 and 16.6 nM.

The record behind these values is patent US20240336591A1, “ORGANIC PYRIDINE-PYRAZOLE COMPOUNDS AND THEIR USES” (priority 2021, published 2024).
